Experimental data taken from paper PMC6017357, “In Vitro Inhibitory Effects of Synthetic Cannabinoid EAM-2201 on Cytochrome P450 and UDP-Glucuronosyltransferase Enzyme Activities in Human Liver Microsomes” (Molecules : A Journal of Synthetic Chemistry and Natural …, 2018).

Assays:
CYP2B6 = target: T1, CYP2B6 (Homo sapiens, UniProt P20813); test: CYP2B6-mediated bupropion hydroxylation in pooled human liver microsomes; type: in vitro ADME; details: up to 50 µM, without 30-min preincubation
T1 construct: from tissue; host or cells: ultrapooled human liver microsomes
T1 sequence (P20813 1-491): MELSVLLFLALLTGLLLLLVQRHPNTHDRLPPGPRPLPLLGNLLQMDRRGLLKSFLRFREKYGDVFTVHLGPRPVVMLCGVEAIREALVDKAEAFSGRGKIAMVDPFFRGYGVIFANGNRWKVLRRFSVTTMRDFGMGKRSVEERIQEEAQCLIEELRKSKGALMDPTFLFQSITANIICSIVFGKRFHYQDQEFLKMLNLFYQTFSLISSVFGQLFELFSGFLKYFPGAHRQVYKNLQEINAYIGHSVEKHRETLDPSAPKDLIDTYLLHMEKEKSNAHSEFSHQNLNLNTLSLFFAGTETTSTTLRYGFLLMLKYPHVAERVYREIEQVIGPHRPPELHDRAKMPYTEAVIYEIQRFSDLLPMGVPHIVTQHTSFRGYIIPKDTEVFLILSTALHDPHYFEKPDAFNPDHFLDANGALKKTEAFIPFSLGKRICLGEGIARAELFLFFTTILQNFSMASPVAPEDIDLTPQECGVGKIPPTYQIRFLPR
Experimental: The inhibitory effects (IC50 values) of EAM-2201 on CYP2B6-catalyzed bupropion 4-hydroxylase activity were determined in ultrapooled human liver microsomes using LC-MS/MS [41]. Each incubation mixture was prepared in a total volume of 100 µL as follows: pooled human liver microsomes (5.2 pmol CYP), 1.0 mM NADPH, 10 mM magnesium chloride, 50 mM potassium phosphate buffer (pH 7.4), various concentrations of EAM-2201 in DMSO (final 0.1–50 µM, 0.5% DMSO) and CYP2B6-selective substrate and 50 µM bupropion. After a 3-min preincubation at 37 °C, reactions were initiated by adding NADPH, followed by incubation for 15 min at 37 °C in a shaking water bath. […] Aliquots (5 µL) of the diluted supernatants were analyzed by LC-MS/MS. […]
(§1) The metabolites formed from CYP substrates were simultaneously quantified using our previously described LC-MS/MS method. […] Quantification was performed by selected reaction monitoring (SRM) of the [M + H]^+ ion and the related product ion for each metabolite: acetaminophen, 152.1 > 110.3; N-desethylamodiaquine, 328.1 > 283.0; 7-hydroxycoumarin, 163.0 > 107.2; 4-hydroxybupropion, 256.1 > 238.0; 4′-hydroxydiclofenac, 312.0 > 231.1; 4′-hydroxy-mephenytoin, 235.1 > 150.1; 1′-hydroxybufuralol, 278.1 > 186.1; 1′-hydroxymidazolam, 341.9 > 324.0; ^13C2,^15N-acetaminophen, 155.1 > 111.2; and d9-1′-hydroxybufuralol, 287.2 > 187.0. […]

CYP2D6 = target: T2, CYP2D6 (Homo sapiens, UniProt P10635); test: CYP2D6-mediated bufuralol 1′-hydroxylation in pooled human liver microsomes; type: in vitro ADME; details: up to 50 µM, without 30-min preincubation
T2 construct: from tissue; host or cells: ultrapooled human liver microsomes
Experimental: The inhibitory potential (IC50 values) of EAM-2201 on CYP1A2, CYP2A6, CYP2C8, CYP2C9, CYP2C19, CYP2D6 and CYP3A4 were evaluated using ultrapooled human liver microsomes and a cocktail of seven CYP substrates followed by LC-tandem mass spectrometry (LC-MS/MS) as previously described. […] Aliquots (5 µL) of the diluted supernatants were analyzed using LC-MS/MS. […]
as §1

T2 sequence (P10635 whole entry): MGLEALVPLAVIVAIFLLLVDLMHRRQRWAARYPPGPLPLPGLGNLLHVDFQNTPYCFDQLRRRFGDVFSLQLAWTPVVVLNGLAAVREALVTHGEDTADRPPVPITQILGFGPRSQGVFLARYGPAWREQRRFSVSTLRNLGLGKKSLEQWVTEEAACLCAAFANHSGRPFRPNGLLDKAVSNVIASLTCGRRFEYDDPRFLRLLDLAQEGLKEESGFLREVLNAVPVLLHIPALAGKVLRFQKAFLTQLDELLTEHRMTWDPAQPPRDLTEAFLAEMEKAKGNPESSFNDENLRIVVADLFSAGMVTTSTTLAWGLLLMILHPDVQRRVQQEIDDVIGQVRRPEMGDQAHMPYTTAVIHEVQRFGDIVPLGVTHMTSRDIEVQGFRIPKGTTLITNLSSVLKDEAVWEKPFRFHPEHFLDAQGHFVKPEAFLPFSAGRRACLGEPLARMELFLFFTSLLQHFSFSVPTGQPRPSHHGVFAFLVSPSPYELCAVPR

CCc1ccc(C(=O)c2cn(CCCCCF)c3ccccc23)c2ccccc12 [EAM-2201, (4-ethyl-1-naphthalenyl)[1-(5-fluoropentyl)-1H-indol-3-yl]-methanone]
inhibition of CYP2B6-mediated bupropion hydroxylation (CYP2B6): negligibly inhibited | inhibition of CYP2D6-mediated bufuralol 1′-hydroxylation (CYP2D6): negligibly inhibited
